# From ChEMBL document CHEMBL4507317, “Data for DCP probe BAY-899” (2021)
# Tests used:
# [1] = target: TRAF2 and NCK-interacting protein kinase (Homo sapiens) (UniProt Q9UKE5); conditions: Compound concentration 1000.0 nM
# [2] = target: Vascular endothelial growth factor receptor 3 (Homo sapiens) (UniProt P35916); conditions: Compound concentration 1000.0 nM
# [3] = system: Epidermal growth factor receptor (Homo sapiens), P00533 [UNDEFINED MUTATION]; conditions: Compound concentration 1000.0 nM
# [4] = target: Dual specificity mitogen-activated protein kinase kinase 5 (Homo sapiens) (UniProt Q13163); conditions: Compound concentration 1000.0 nM
# [5] = target: Platelet-derived growth factor receptor alpha (Homo sapiens) (UniProt P16234); conditions: Compound concentration 1000.0 nM
# Platelet-derived growth factor receptor alpha (Homo sapiens), sequence (P16234 whole entry): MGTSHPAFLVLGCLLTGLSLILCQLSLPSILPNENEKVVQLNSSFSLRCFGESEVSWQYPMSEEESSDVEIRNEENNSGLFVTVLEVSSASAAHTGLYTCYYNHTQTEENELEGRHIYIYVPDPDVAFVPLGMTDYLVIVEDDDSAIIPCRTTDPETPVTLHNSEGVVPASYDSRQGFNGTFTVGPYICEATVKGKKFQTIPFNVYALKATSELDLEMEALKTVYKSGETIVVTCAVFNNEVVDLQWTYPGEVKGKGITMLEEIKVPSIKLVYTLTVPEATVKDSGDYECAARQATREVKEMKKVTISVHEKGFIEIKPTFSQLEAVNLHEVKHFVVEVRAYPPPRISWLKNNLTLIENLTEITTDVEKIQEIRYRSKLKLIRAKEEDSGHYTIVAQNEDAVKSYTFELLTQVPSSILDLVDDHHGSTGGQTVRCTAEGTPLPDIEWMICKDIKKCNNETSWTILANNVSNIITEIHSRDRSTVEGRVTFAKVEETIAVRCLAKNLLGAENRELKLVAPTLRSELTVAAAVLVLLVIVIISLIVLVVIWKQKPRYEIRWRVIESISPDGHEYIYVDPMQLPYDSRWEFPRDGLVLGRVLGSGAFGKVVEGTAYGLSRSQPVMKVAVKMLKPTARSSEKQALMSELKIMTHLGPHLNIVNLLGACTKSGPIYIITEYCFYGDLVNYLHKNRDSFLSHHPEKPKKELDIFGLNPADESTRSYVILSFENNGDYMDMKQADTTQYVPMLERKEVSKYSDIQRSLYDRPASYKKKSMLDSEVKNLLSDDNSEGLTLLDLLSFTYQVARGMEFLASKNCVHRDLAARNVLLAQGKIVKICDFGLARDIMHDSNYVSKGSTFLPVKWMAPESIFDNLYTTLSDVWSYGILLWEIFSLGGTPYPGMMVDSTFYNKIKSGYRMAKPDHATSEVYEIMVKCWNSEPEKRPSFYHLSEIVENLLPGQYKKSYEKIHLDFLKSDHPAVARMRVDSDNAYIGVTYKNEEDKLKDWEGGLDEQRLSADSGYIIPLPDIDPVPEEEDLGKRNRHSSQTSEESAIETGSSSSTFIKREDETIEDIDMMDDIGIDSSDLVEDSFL
# [6] = target: Serine/threonine-protein kinase TAO1 (Homo sapiens) (UniProt Q7L7X3); conditions: Compound concentration 1000.0 nM
# [7] = target: Cyclin-dependent kinase 3 (Homo sapiens) (UniProt Q00526); conditions: Compound concentration 1000.0 nM
# [8] = target: Rhodopsin kinase GRK7 (Homo sapiens) (UniProt Q8WTQ7); conditions: Compound concentration 1000.0 nM
# [9] = target: GABA-A receptor; anion channel (Rattus norvegicus) (UniProt O09028+P15431+P18506+P18508+P19969+P20236+P23574+P23576+P28471+P28473+P30191+P62813+P63079+P63138+Q91ZM7+Q9ES14); conditions: Compound concentration 10.0 uM
# [10] = target: Serine/threonine-protein kinase 17B (Homo sapiens) (UniProt O94768); conditions: Compound concentration 1000.0 nM
# [11] = target: Ephrin type-B receptor 3 (Homo sapiens) (UniProt P54753); conditions: Compound concentration 1000.0 nM
# [12] = target: Kappa-type opioid receptor (Homo sapiens, UniProt P41145); assay: GPCRScan assay: inhibition of KOR; design: radioligand conc. used [nm] 0.6 – 1.2, parental cells stable HEK
# [13] = target: Serine/threonine-protein kinase SBK1 (Homo sapiens) (UniProt Q52WX2); conditions: Compound concentration 1000.0 nM
# [14] = target: Cyclin-dependent kinase 15 (Homo sapiens) (UniProt Q96Q40); conditions: Compound concentration 1000.0 nM
# [15] = target: Tyrosine-protein kinase Fer (Homo sapiens) (UniProt P16591); conditions: Compound concentration 1000.0 nM
# [16] = target: Mitogen-activated protein kinase 11 (Homo sapiens) (UniProt Q15759); conditions: Compound concentration 1000.0 nM
# Mitogen-activated protein kinase 11 (Homo sapiens), sequence (Q15759 whole entry): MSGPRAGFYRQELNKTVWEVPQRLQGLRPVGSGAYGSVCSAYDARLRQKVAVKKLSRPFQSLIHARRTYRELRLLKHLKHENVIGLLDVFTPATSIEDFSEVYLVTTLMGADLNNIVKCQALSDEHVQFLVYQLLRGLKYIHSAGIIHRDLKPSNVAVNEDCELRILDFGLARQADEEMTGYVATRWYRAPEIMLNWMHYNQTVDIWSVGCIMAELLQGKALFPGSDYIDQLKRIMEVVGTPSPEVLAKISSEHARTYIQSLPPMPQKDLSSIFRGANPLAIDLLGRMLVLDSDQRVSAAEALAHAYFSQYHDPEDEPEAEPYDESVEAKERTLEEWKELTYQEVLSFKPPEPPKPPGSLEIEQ
# [17] = target: NUAK family SNF1-like kinase 2 (Homo sapiens) (UniProt Q9H093); conditions: Compound concentration 1000.0 nM
# [18] = target: Beta-2 adrenergic receptor (Homo sapiens) (UniProt P07550); conditions: Compound concentration 10.0 uM
# [19] = target: Receptor-interacting serine/threonine-protein kinase 1 (Homo sapiens) (UniProt Q13546); conditions: Compound concentration 1000.0 nM
# [20] = target: Serine/threonine-protein kinase 38-like (Homo sapiens) (UniProt Q9Y2H1); conditions: Compound concentration 1000.0 nM
# [21] = system: Epidermal growth factor receptor (Homo sapiens), P00533 [L861Q]; conditions: Compound concentration 1000.0 nM
# [22] = target: Tyrosine-protein kinase JAK1 (Homo sapiens) (UniProt P23458); conditions: Compound concentration 1000.0 nM
# [23] = target: Mitogen-activated protein kinase kinase kinase 2 (Homo sapiens) (UniProt Q9Y2U5); conditions: Compound concentration 1000.0 nM
# [24] = target: Serine/threonine-protein kinase 10 (Homo sapiens) (UniProt O94804); conditions: Compound concentration 1000.0 nM
# Serine/threonine-protein kinase 10 (Homo sapiens), sequence (O94804 whole entry, looked up): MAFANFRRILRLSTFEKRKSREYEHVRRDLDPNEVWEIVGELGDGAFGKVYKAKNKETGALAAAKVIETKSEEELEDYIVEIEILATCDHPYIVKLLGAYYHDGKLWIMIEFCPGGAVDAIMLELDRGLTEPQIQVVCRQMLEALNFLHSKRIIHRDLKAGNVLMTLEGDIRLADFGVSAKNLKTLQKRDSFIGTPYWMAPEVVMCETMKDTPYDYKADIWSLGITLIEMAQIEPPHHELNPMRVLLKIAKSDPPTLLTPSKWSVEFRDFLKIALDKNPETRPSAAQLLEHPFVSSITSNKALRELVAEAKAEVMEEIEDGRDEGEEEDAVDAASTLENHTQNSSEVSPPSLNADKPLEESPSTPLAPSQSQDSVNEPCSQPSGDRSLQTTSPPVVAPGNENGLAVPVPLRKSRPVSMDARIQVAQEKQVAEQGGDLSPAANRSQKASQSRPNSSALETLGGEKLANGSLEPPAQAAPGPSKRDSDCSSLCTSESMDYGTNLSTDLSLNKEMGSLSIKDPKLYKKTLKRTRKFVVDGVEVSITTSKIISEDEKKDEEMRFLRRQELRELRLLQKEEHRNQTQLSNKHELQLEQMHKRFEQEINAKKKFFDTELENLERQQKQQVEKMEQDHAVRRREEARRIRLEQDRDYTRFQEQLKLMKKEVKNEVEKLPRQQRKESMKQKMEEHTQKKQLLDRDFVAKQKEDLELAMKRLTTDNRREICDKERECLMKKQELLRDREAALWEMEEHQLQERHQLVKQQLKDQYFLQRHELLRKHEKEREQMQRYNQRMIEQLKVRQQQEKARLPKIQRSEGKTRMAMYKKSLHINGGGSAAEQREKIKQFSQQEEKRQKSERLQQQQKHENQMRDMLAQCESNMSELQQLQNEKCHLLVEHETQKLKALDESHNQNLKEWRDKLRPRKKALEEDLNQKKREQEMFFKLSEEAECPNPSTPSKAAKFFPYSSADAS
# [25] = target: RAC-beta serine/threonine-protein kinase (Homo sapiens) (UniProt P31751); conditions: Compound concentration 1000.0 nM
# [26] = target: Mitogen-activated protein kinase 4 (Homo sapiens) (UniProt P31152); conditions: Compound concentration 1000.0 nM
# Mitogen-activated protein kinase 4 (Homo sapiens), sequence (P31152 whole entry): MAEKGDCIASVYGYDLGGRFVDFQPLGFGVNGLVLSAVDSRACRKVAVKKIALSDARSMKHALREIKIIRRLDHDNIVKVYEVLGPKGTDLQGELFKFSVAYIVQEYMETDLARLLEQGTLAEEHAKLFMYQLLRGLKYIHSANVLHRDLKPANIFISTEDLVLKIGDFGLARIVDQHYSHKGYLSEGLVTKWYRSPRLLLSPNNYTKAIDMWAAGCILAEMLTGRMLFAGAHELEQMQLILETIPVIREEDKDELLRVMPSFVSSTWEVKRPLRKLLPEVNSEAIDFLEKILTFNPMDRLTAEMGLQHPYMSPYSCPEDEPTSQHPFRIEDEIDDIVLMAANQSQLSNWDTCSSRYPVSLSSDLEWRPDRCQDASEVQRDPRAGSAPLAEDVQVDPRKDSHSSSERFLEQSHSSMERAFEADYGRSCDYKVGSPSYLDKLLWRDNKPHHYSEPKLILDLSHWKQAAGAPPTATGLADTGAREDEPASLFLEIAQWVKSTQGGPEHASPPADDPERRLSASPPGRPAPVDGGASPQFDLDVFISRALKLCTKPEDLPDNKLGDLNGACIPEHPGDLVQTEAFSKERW
# [27] = target: Serine/threonine-protein kinase 26 (Homo sapiens) (UniProt Q9P289); conditions: Compound concentration 1000.0 nM
# [28] = target: Phosphatidylinositol 5-phosphate 4-kinase type-2 beta (Homo sapiens) (UniProt P78356); conditions: Compound concentration 1000.0 nM
# [29] = target: Tyrosine-protein kinase ABL1 (Homo sapiens) (UniProt P00519); conditions: Compound concentration 1000.0 nM
# [30] = target: Ephrin type-B receptor 2 (Homo sapiens) (UniProt P29323); conditions: Compound concentration 1000.0 nM
# Ephrin type-B receptor 2 (Homo sapiens), sequence (P29323 whole entry): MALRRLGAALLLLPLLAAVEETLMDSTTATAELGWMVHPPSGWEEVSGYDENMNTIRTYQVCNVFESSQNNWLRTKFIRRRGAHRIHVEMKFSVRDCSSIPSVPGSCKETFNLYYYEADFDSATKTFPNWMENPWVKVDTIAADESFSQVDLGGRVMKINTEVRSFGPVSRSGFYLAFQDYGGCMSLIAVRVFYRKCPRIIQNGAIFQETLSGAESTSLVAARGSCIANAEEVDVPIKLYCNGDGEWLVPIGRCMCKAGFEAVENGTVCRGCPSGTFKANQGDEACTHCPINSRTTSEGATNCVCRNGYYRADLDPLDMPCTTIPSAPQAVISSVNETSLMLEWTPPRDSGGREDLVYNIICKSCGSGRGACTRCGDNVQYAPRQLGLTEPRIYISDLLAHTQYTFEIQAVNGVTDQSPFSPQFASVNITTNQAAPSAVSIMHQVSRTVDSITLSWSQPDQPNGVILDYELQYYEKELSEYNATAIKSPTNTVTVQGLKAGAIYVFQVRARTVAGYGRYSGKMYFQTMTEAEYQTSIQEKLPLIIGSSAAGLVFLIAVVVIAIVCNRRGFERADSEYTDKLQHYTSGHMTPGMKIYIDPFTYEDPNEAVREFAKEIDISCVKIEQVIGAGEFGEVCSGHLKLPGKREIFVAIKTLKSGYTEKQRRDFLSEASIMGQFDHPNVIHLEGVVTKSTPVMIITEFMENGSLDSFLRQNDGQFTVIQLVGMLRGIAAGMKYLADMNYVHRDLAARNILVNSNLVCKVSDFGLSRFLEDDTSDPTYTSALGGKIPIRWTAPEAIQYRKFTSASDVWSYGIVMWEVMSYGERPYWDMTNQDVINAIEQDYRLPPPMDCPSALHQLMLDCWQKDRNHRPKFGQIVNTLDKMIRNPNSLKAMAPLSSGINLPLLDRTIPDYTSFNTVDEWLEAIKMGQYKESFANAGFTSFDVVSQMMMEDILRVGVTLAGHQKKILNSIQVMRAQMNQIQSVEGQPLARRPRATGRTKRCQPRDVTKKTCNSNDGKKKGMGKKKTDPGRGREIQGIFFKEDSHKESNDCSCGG
# [31] = target: Ephrin type-A receptor 6 (Homo sapiens) (UniProt Q9UF33); conditions: Compound concentration 1000.0 nM
# [32] = target: Bone morphogenetic protein receptor type-2 (Homo sapiens) (UniProt Q13873); conditions: Compound concentration 1000.0 nM
# [33] = system: Tyrosine-protein kinase ABL1 (Homo sapiens), P00519 [M351T]; conditions: Compound concentration 1000.0 nM
# [34] = system: Tyrosine-protein kinase ABL1 (Homo sapiens), P00519 [Y253F]; conditions: Compound concentration 1000.0 nM
# [35] = target: TGF-beta receptor type-2 (Homo sapiens) (UniProt P37173); conditions: Compound concentration 1000.0 nM
# [36] = target: Receptor-interacting serine/threonine-protein kinase 2 (Homo sapiens) (UniProt O43353); conditions: Compound concentration 1000.0 nM
# [37] = system: Proto-oncogene tyrosine-protein kinase receptor Ret (Homo sapiens), P07949 [V804L]; conditions: Compound concentration 1000.0 nM
# [38] = target: SRSF protein kinase 3 (Homo sapiens) (UniProt Q9UPE1); conditions: Compound concentration 1000.0 nM
# [39] = target: Tyrosine-protein kinase JAK2 (Homo sapiens) (UniProt O60674); conditions: Compound concentration 1000.0 nM
# [40] = target: Mitogen-activated protein kinase kinase kinase 1 (Homo sapiens) (UniProt Q13233); conditions: Compound concentration 1000.0 nM
# [41] = target: Serine/threonine-protein kinase NIM1 (Homo sapiens) (UniProt Q8IY84); conditions: Compound concentration 1000.0 nM
# [42] = system: Phosphatidylinositol 4,5-bisphosphate 3-kinase catalytic subunit alpha isoform (Homo sapiens), P42336 [M1043I]; conditions: Compound concentration 1000.0 nM
# [43] = target: Tyrosine-protein kinase Tec (Homo sapiens) (UniProt P42680); conditions: Compound concentration 1000.0 nM
# [44] = target: Ephrin type-A receptor 5 (Homo sapiens) (UniProt P54756); conditions: Compound concentration 1000.0 nM
# Ephrin type-A receptor 5 (Homo sapiens), sequence (P54756 whole entry): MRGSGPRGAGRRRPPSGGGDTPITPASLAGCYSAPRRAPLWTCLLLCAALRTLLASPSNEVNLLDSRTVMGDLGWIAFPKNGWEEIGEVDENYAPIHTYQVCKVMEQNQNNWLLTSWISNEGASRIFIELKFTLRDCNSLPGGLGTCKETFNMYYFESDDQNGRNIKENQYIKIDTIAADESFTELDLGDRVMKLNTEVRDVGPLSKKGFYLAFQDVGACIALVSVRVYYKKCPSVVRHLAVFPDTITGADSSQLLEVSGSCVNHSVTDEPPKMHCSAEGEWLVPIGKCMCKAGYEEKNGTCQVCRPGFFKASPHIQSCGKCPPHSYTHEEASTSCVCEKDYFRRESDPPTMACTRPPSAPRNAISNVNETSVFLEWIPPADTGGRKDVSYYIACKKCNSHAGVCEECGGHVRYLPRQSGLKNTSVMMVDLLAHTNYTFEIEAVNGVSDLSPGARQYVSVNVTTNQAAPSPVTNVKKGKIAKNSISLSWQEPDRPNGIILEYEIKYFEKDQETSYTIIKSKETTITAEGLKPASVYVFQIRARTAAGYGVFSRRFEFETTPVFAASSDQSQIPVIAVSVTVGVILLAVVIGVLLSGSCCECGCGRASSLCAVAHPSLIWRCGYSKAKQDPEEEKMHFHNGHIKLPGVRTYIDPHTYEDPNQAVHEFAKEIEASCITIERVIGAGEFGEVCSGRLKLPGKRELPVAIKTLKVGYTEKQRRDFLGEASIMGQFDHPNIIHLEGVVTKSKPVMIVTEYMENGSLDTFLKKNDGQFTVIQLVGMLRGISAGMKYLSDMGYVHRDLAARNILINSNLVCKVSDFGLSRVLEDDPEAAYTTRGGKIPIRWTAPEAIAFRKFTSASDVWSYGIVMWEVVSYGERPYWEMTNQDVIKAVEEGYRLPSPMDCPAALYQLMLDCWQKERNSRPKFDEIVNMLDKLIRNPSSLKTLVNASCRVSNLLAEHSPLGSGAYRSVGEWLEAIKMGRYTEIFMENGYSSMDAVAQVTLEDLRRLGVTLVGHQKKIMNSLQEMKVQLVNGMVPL
smiles,measurement,setting,value
O=C(Nc1ccc(Oc2ccc(F)cc2)cc1)N1CCc2ncccc2[C@H]1c1ccc(F)cc1 [BAY-897],residual activity,[1],100%
same,residual activity,[2],96%
same,residual activity,[3],80%
same,residual activity,[4],81%
same,residual activity,[5],95%
same,residual activity,[6],100%
same,residual activity,[7],93%
same,residual activity,[8],100%
same,inhibition,[9],22.4%
same,residual activity,[10],89%
same,residual activity,[11],100%
same,Ki,[12],3.13 µM
same,residual activity,[13],89%
same,residual activity,[14],86%
same,residual activity,[15],91%
same,residual activity,[16],100%
same,residual activity,[17],82%
same,inhibition,[18],25.6%
same,residual activity,[19],100%
same,residual activity,[20],76%
same,residual activity,[21],83%
same,residual activity,[22],100%
same,residual activity,[23],89%
same,residual activity,[24],100%
same,residual activity,[25],96%
same,residual activity,[26],95%
same,residual activity,[27],100%
same,residual activity,[28],97%
same,residual activity,[29],100%
same,residual activity,[30],91%
same,residual activity,[31],100%
same,residual activity,[32],96%
same,residual activity,[33],51%
same,residual activity,[34],82%
same,residual activity,[35],91%
same,residual activity,[36],96%
same,residual activity,[37],95%
same,residual activity,[38],100%
same,residual activity,[39],100%
same,residual activity,[40],87%
same,residual activity,[41],80%
same,residual activity,[42],89%
same,residual activity,[43],86%
same,residual activity,[44],100%
O=C(Nc1cnc(Oc2ccc(F)cc2)nc1)N1CCc2ncccc2[C@@H]1c1ccc(F)cc1 [BAY-899],residual activity,[1],100%
same,residual activity,[2],96%
same,residual activity,[3],70%
same,residual activity,[4],83%
same,residual activity,[5],93%
same,residual activity,[6],100%
same,residual activity,[7],89%
same,residual activity,[8],100%
same,inhibition,[9],26%
same,residual activity,[10],92%
same,residual activity,[11],100%
same,Ki,[12],7.63 µM
same,residual activity,[13],100%
same,residual activity,[14],93%
same,residual activity,[15],93%
same,residual activity,[16],84%
same,residual activity,[17],100%
same,inhibition,[18],25.3%
same,residual activity,[19],99%
same,residual activity,[20],75%
same,residual activity,[21],85%
same,residual activity,[22],96%
same,residual activity,[23],99%
same,residual activity,[24],94%
same,residual activity,[25],100%
same,residual activity,[26],95%
same,residual activity,[27],90%
same,residual activity,[28],100%
same,residual activity,[29],93%
same,residual activity,[30],87%
same,residual activity,[31],100%
same,residual activity,[32],88%
same,residual activity,[33],57%
same,residual activity,[34],100%
same,residual activity,[35],100%
same,residual activity,[36],93%
same,residual activity,[37],86%
same,residual activity,[38],100%
same,residual activity,[39],84%
same,residual activity,[40],89%
same,residual activity,[41],90%
same,residual activity,[42],100%
same,residual activity,[43],89%
same,residual activity,[44],100%
